Test results taken from PMC5908784, “Extracellular loops 2 and 3 of the calcitonin receptor selectively modify agonist binding and efficacy” (Biochemical Pharmacology, 2018).
Substitutions are numbered along the chain they refer to. Where two headings read alike, the source gives them in different places. Where a SMILES comes first, the peptide text is derived from it. Bridges are numbered along the chain shown (N, C = ends).

Assays:
Assay in all cases: ERK1/2 phosphorylation
Type in all cases: cell-based
hCTR L368A = molecular target: T1, hCTR L368A (Homo sapiens, UniProt P30988, L368A); details: CV1-FlpIn cells, mean ± S.E.M.; for Emax: pERK maximal response; for EC50: pERK, three-parameter logistic fit
T1 construct: c-Myc (N); expressed in transfected cells
T1 sequence (P30988 25-474 L368A): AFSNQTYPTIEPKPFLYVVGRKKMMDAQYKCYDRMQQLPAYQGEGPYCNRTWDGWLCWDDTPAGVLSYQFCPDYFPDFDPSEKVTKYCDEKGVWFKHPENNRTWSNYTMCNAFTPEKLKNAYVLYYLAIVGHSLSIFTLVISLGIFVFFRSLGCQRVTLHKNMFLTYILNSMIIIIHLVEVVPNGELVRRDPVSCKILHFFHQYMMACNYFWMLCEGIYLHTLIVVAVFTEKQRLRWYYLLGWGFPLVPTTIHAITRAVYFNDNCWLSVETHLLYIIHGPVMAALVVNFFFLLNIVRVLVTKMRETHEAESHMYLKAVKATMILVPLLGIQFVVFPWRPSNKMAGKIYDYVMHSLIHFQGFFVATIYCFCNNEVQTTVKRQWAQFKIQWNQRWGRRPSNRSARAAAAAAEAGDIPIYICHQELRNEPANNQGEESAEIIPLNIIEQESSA
Description: (§1) Cells (2.5 × 10^4 cells/well) were seeded into 96-well culture plates and incubated overnight. […] Data were normalized to the maximal response elicited by 10% FBS determined at 6 min.
(§2) Data were corrected for radioligand occupancy using the Cheng-Prusoff equation in Prism; as such data are reported as pKi. Emax and EC50 were estimated from concentration-response curves using with a 3-parameter logistic equation in Prism (v7). These values are a composite of functional affinity, efficacy and stimulus response coupling. […] Significance was accepted at P < 0.05.

hCTR V375A = molecular target: T2, hCTR V375A (Homo sapiens, UniProt P30988, V375A); details: CV1-FlpIn cells, mean ± S.E.M.; for Emax: pERK maximal response; for EC50: pERK, three-parameter logistic fit
T2 construct: c-Myc (N); expressed in transfected cells
T2 sequence (P30988 25-474 V375A): T1 sequence (P30988 25-474 L368A) with A344L, V351A
Description: as §1, §2

hCTR W361A = molecular target: T3, hCTR W361A (Homo sapiens, UniProt P30988, W361A); details: for Emax: read-out: Emax (% WT); for EC50: pERK, three-parameter logistic fit
T3 construct: expressed in transfected cells
T3 sequence (P30988 25-474 W361A): T1 sequence (P30988 25-474 L368A) with W337A, A344L
Description: as §1, §2

hCTR D287A = molecular target: T4, hCTR D287A (Homo sapiens, UniProt P30988, D287A); details: CV1-FlpIn cells, mean ± S.E.M.; for Emax: pERK maximal response
T4 construct: c-Myc (N); expressed in transfected cells
T4 sequence (P30988 25-474 D287A): T1 sequence (P30988 25-474 L368A) with D263A, A344L
Description: as §1, §2

hCTR Y299A = molecular target: T5, hCTR Y299A (Homo sapiens, UniProt P30988, Y299A); details: CV1-FlpIn cells, mean ± S.E.M.; for Emax: pERK maximal response
T5 construct: c-Myc (N); expressed in transfected cells
T5 sequence (P30988 25-474 Y299A): T1 sequence (P30988 25-474 L368A) with Y275A, A344L
Description: as §1, §2

[1] = pERK maximal response, hCTR W361A, CV1-FlpIn cells, mean ± S.E.M.
[2] = hCTR W361A, CV1-FlpIn cells, mean ± S.E.M.
[3] = pERK, three-parameter logistic fit

Structure (SMILES)	Emax (hCTR L368A) [%]	EC50 (hCTR L368A) [nM]	Emax (hCTR V375A) [%]	EC50 (hCTR V375A) [nM]	Emax (hCTR W361A; [1]) [%]	EC50 (hCTR W361A; [2]) [nM]	Emax (hCTR D287A) [%]	Emax (hCTR W361A) [%]	Emax (hCTR Y299A) [%]	EC50 (hCTR D287A; [3]) [nM]	EC50 (hCTR Y299A; [3]) [nM]
CC(C)C[C@H](NC(=O)CNC(=O)[C@H](C)NC(=O)[C@H](CC(C)C)NC(=O)[C@H](CCCNC(=N)N)NC(=O)[C@H](Cc1cnc[nH]1)NC(=O)[C@@H](NC(=O)[C@@H](NC(=O)[C@@H]1CSSC[C@H](NC(=O)[C@H](C)N)C(=O)N[C@@H](CC(=O)O)C(=O)N[C@@H]([C@@H](C)O)C(=O)N[C@@H](C)C(=O)N[C@@H]([C@@H](C)O)C(=O)N1)C(C)C)[C@@H](C)O)C(=O)N[C@@H](CC(C)C)C(=O)N[C@@H](CO)C(=O)N[C@@H](CCCNC(=N)N)C(=O)N[C@@H](CO)C(=O)NCC(=O)NCC(=O)N[C@H](C(=O)N[C@H](C(=O)N[C@@H](CCCCN)C(=O)N[C@@H](CC(N)=O)C(=O)N[C@@H](CC(N)=O)C(=O)N[C@@H](Cc1ccccc1)C(=O)N[C@H](C(=O)N1CCC[C@H]1C(=O)N[C@H](C(=O)N[C@@H](CC(N)=O)C(=O)N[C@H](C(=O)NCC(=O)N[C@@H](CO)C(=O)N[C@@H](CCCCN)C(=O)N[C@@H](C)C(=O)N[C@@H](Cc1ccccc1)C(N)=O)C(C)C)[C@@H](C)O)C(C)C)C(C)C)C(C)C [hαCGRP]	84 ± 16	85.1	58 ± 7	110	49 ± 8	117	–	–	–	–	–
CC[C@H](C)[C@H](NC(=O)[C@H](C)NC(=O)[C@@H](NC(=O)[C@H](CCC(N)=O)NC(=O)[C@@H]1CCCN1C(=O)[C@H](Cc1ccccc1)NC(=O)[C@@H](NC(=O)[C@H](Cc1c[nH]cn1)NC(=O)[C@H](Cc1ccccc1)NC(=O)[C@H](CCCCN)NC(=O)[C@H](CC(N)=O)NC(=O)[C@H](Cc1ccccc1)NC(=O)[C@H](CC(=O)O)NC(=O)[C@H](CCC(N)=O)NC(=O)[C@@H](NC(=O)[C@H](Cc1ccc(O)cc1)NC(=O)[C@@H](NC(=O)CNC(=O)[C@H](CC(C)C)NC(=O)[C@H](CCSC)NC(=O)[C@@H]1CSSC[C@H](N)C(=O)NCC(=O)N[C@@H](CC(N)=O)C(=O)N[C@@H](CC(C)C)C(=O)N[C@@H](CO)C(=O)N[C@@H]([C@@H](C)O)C(=O)N1)[C@@H](C)O)[C@@H](C)O)[C@@H](C)O)[C@@H](C)O)C(=O)NCC(=O)N[C@H](C(=O)NCC(=O)N[C@@H](C)C(=O)N1CCC[C@H]1C(N)=O)C(C)C [hCT]	126 ± 7	–	67 ± 3	–	–	–	35 ± 5	112 ± 6	56 ± 6	–	–
CC(C)C[C@H](NC(=O)[C@H](CC(N)=O)NC(=O)[C@H](CC(N)=O)NC(=O)[C@H](CO)NC(=O)[C@H](CO)NC(=O)[C@H](CCCNC(=N)N)NC(=O)[C@@H](NC(=O)[C@H](CC(C)C)NC(=O)[C@H](Cc1ccccc1)NC(=O)[C@H](CC(N)=O)NC(=O)[C@H](C)NC(=O)[C@H](CC(C)C)NC(=O)[C@H](CCCNC(=N)N)NC(=O)[C@H](CCC(N)=O)NC(=O)[C@@H](NC(=O)[C@H](C)NC(=O)[C@@H]1CSSC[C@H](NC(=O)[C@@H](N)CCCCN)C(=O)N[C@@H](CC(N)=O)C(=O)N[C@@H]([C@@H](C)O)C(=O)N[C@@H](C)C(=O)N[C@@H]([C@@H](C)O)C(=O)N1)[C@@H](C)O)C(C)C)C(=O)NCC(=O)N1CCC[C@H]1C(=O)N[C@H](C(=O)N[C@@H](CC(C)C)C(=O)N1CCC[C@H]1C(=O)N1CCC[C@H]1C(=O)N[C@H](C(=O)N[C@@H](CC(N)=O)C(=O)N[C@H](C(=O)NCC(=O)N[C@@H](CO)C(=O)N[C@@H](CC(N)=O)C(=O)N[C@H](C(=O)N[C@@H](Cc1ccc(O)cc1)C(N)=O)[C@@H](C)O)C(C)C)[C@@H](C)O)C(C)C [rAmy]	82 ± 8	–	77 ± 13	–	–	–	–	42 ± 9	51 ± 7	–	–
CSCC[C@H](NC(=O)CNC(=O)[C@H](CO)NC(=O)[C@H](Cc1ccccc1)NC(=O)[C@H](CCCNC(=N)N)NC(=O)[C@H](Cc1c[nH]cn1)NC(=O)[C@H](Cc1ccccc1)NC(=O)[C@H](CC(N)=O)NC(=O)[C@H](CC(N)=O)NC(=O)[C@H](CC(C)C)NC(=O)[C@H](CC(N)=O)NC(=O)[C@H](CCCNC(=N)N)NC(=O)[C@H](Cc1c[nH]c2ccccc12)NC(=O)[C@H](Cc1ccc(O)cc1)NC(=O)[C@H](C)NC(=O)[C@H](CO)NC(=O)[C@H](CC(C)C)NC(=O)[C@@H](NC(=O)[C@@H]1CSSC[C@H](N)C(=O)N[C@@H](CO)C(=O)N[C@@H](CC(N)=O)C(=O)N[C@@H](CC(C)C)C(=O)N[C@@H](CO)C(=O)N[C@@H]([C@@H](C)O)C(=O)N1)C(C)C)C(=O)NCC(=O)N[C@@H](Cc1ccccc1)C(=O)NCC(=O)N1CCC[C@H]1C(=O)N[C@@H](CCC(=O)O)C(=O)N[C@H](C(=O)N1CCC[C@H]1C(N)=O)[C@@H](C)O [pCT] (H-CSNLSTCVLSAYWRNLNNFHRFSGMGFGPETP-NH2; disulfide 1-7)	159 ± 11	1.95	89 ± 4	2.63	76 ± 6	6.31	27 ± 3	–	51 ± 3	12.6	0.933
CC(C)C[C@H](NC(=O)[C@H](CCCCN)NC(=O)CNC(=O)[C@H](CC(C)C)NC(=O)[C@@H](NC(=O)[C@@H]1CSSC[C@H](N)C(=O)N[C@@H](CO)C(=O)N[C@@H](CC(N)=O)C(=O)N[C@@H](CC(C)C)C(=O)N[C@@H](CO)C(=O)N[C@@H]([C@@H](C)O)C(=O)N1)C(C)C)C(=O)N[C@@H](CO)C(=O)N[C@@H](CCC(N)=O)C(=O)N[C@@H](CCC(=O)O)C(=O)N[C@@H](CC(C)C)C(=O)N[C@@H](Cc1c[nH]cn1)C(=O)N[C@@H](CCCCN)C(=O)N[C@@H](CC(C)C)C(=O)N[C@@H](CCC(N)=O)C(=O)N[C@H](C(=O)N[C@@H](Cc1ccc(O)cc1)C(=O)N1CCC[C@H]1C(=O)N[C@@H](CCCNC(=N)N)C(=O)N[C@H](C(=O)N[C@@H](CC(N)=O)C(=O)N[C@H](C(=O)NCC(=O)N[C@@H](CO)C(=O)NCC(=O)N[C@H](C(=O)N1CCC[C@H]1C(N)=O)[C@@H](C)O)[C@@H](C)O)[C@@H](C)O)[C@@H](C)O [sCT]	140 ± 6	–	70 ± 3	–	–	–	39 ± 2	125 ± 5	58 ± 4	–	–
